Source: patent publication US20130178391A1, “METHODS FOR PREDICTING TREATMENT RESPONSE BASED ON THE EXPRESSION PROFILES OF BIOMARKER GENES IN NOTCH MEDIATED CANCERS” (Rosetta Inpharmaceutics LLC, priority 2007, published 2013)

Tests used:
CDKN2D, CDKN1B [1] = experiment: Quantitative PCR of CDKN2D and CDKN1B in T-ALL cell lines; assay type: cell-based, Human; settings: TALL1 cells, 48 hours
Experimental: T-ALL cell lines were treated with DMSO or MRK-003 (active GSI) for 48 hours and then harvested. RNA was isolated using the RNeasy Mini Kit (Qiagen, Cat#: 74106). cDNA was synthesized using High Capacity Archive Kit (Applied Biosystems, Cat #: 4368814). qPCR was performed on an ABI 7900 using AACT protocol using their inventoried Taqman Probes/Primers for human CDKN2D, CDKN1B and GAPDH (as internal control). Analysis was performed in SDS 2.2.2 software (Applied Biosystems).

human T-ALL cell lines = experiment: Grouping of 16 T-ALL cell lines by GSI sensitivity (7-day ATP viability assay); assay type: cell-based
Experimental: (§1) Human T-ALL cell lines were purchased from ATCC (Manassas, Va.) or DSMZ (Braunschweig, Germany). Cell lines were maintained in RPMI supplemented with 10-15% FBS and 2 mmol/L glutamine. For IC50 analyses TALL cell lines were plated in 96 well plates at 5000 cells/well, except for Tall-1 cells which were plated at 10,000 cells/well. Cells were re-fed with compound and media on day 4. Viability assays were performed using Cell Titer Glo kit (Promega, Cat. No. G7572, Fitchburg, Wis.) 7 days after compound addition. For larger scale compound treatments, TALL cell lines were plated in T-150 flasks at 200,000 cells/mL and treated at 0.1 or 1.0 μM GSI (MRK-003) for 3 days or as indicated. GSI washout studies were performed using 10 μM GSI. T-150 cultures were also re-fed on day 4.
Previous studies have identified mutations in the heterodimerization domain or PEST domain of the NOTCH1 gene in T-ALL cell lines and patient samples resulting in increased NICD and presumably activation of the NOTCH signaling pathway (Weng, Ferrando et al. 2004; Zhu, Zhao et al. 2006). In a subset of human T-ALL cell lines with activating mutations in NOTCH1, treatment with GSIs leads to cell cycle arrest and apoptosis (Weng, Ferrando et al. 2004; Lewis, Leveridge et al. 2007). […] We determined IC50 values for 16 T-ALL cell lines using a 7-day viability assay which allowed grouping into four sensitivity groups (1) high, IC50<1 uM, (2) medium, IC50 3-4 uM, (3) low, IC50 6-7 uM, (4) none, IC50>10 uM and comparison to NOTCH1 mutuation and NICD protein Levels (Table1).
GSI IC50s, based on a 7-day ATP viability assay, are summarized for 16 T-ALL cell lines and grouped into high […], medium (3-4 uM), low (6-7 uM) or insensitive groupings (>10 uM). Also summarized is NOTCH1 mutation status, NICD levels and cell line group size for each sensitivity level previously described (O'Neil et al. 2007). NICD levels are reported qualitatively based on immunoblot signal, 0=none, 1=low, 2=medium, 3=high.

CDKN2D, CDKN1B [2] = experiment: Immunoblot of CDKN2D and CDKN1B; assay type: cell-based, Human; settings: TALL1 cells
From the text: Standard western blotting procedures were used. Antibodies used as follows; Rb-underphosphorylated, (BD Biosciences, Cat. No 554164, San Jose, Calif.) Rb-Total (Cat. No. 9309), CDKN1B (Cell Signaling Technologies, Cat. No. 2552, Danvers, Mass.), CDKN2D (Santa Cruz Biotechnologies, Cat No. sc-1063, Santa Cruz, Calif.), Beta-Actin (Abcam Inc., Cat. No. 8226, Cambridge, Mass.) Immunoblot of NOTCH intracellular domain (NICD) was previously determined (O'Neil, Grim et al. 2007)

TALL-1 = experiment: 7-day Cell Titer Glo viability assay; assay type: cell-based, Human; settings: TALL-1 cells, 7-day viability assay
Experimental: as §1

LOUCY = experiment: 7-day Cell Titer Glo viability assay; assay type: cell-based, Human; settings: LOUCY cells, 7-day viability assay
Experimental: as §1

HBP-ALL = experiment: 7-day Cell Titer Glo viability assay; assay type: cell-based, Human; settings: HBP-ALL cells, 7-day viability assay
Experimental: as §1

CEM = experiment: 7-day Cell Titer Glo viability assay; assay type: cell-based, Human; settings: CEM cells, 7-day viability assay
Experimental: as §1

RPMI 8402 = experiment: 7-day Cell Titer Glo viability assay; assay type: cell-based, Human; settings: RPMI 8402 cells, 7-day viability assay
Experimental: as §1

SUPT-11 = experiment: 7-day Cell Titer Glo viability assay; assay type: cell-based, Human; settings: SUPT-11 cells, 7-day viability assay
Experimental: as §1

KARPAS-45 = experiment: 7-day Cell Titer Glo viability assay; assay type: cell-based, Human; settings: KARPAS-45 cells, 7-day viability assay
Experimental: as §1

JURKAT = experiment: 7-day Cell Titer Glo viability assay; assay type: cell-based, Human; settings: JURKAT cells, 7-day viability assay
Experimental: as §1

PF-382 = experiment: 7-day Cell Titer Glo viability assay; assay type: cell-based, Human; settings: PF-382 cells, 7-day viability assay
Experimental: as §1

BE-13 = experiment: 7-day Cell Titer Glo viability assay; assay type: cell-based, Human; settings: BE-13 cells, 7-day viability assay
Experimental: as §1

KOPTK-1 = experiment: 7-day Cell Titer Glo viability assay; assay type: cell-based, Human; settings: KOPTK-1 cells, 7-day viability assay
Experimental: as §1

HSB-2 = experiment: 7-day Cell Titer Glo viability assay; assay type: cell-based, Human; settings: HSB-2 cells, 7-day viability assay
Experimental: as §1

SKW-3 = experiment: 7-day Cell Titer Glo viability assay; assay type: cell-based, Human; settings: SKW-3 cells, 7-day viability assay
Experimental: as §1

DND41 = experiment: 7-day Cell Titer Glo viability assay; assay type: cell-based, Human; settings: DND41 cells, 7-day viability assay
Experimental: as §1

MOLT -4 = experiment: 7-day Cell Titer Glo viability assay; assay type: cell-based, Human; settings: MOLT -4 cells, 7-day viability assay
Experimental: as §1

MOLT-16 = experiment: 7-day Cell Titer Glo viability assay; assay type: cell-based, Human; settings: MOLT-16 cells, 7-day viability assay
Experimental: as §1

TALL1 = experiment: Flow cytometry DNA content analysis (cell cycle arrest); assay type: cell-based, Human; settings: GSI sensitive cell line TALL1, flow cytometry
Experimental: DNA content analysis was performed using Propidium Iodide/RNase buffer (BD Biosciences, Cat. No. 550825, San Jose, Calif.) or Draq5. Briefly, 1×10(6) cells were harvested and fixed with 70% ethanol for 20 minutes on ice, washed and then resupended in 500 uL of PI buffer for 15 min at room temperature followed by analysis on flow cytometer (FACSCalibur, BD Biosciences). Draq5 staining was performed by incubating 200,000 live cells with 10 uM Draq5 for 5 minutes followed by flow cytometric analysis (488 nm excitation).

## O=S1(=O)N[C@@]2(CN1CC(F)(F)F)[C@@H]1CC[C@H]2Cc2ccc(/C=C/CN3CCC(C(F)(F)F)CC3)cc2C1 [MRK-003]
CDKN2D, CDKN1B [1]
  increases in CDKN2D and CDKN1B by quantitative PCR (FIG. 3B): increases in the CDKi CDKN2D and CDKN1B
Human T-ALL cell lines; cell lines BE-13, SUPT-11
  GSI Sensitivity: Low (low, IC50 6-7 uM)
Human T-ALL cell lines; cell lines CEM, PF-382, HSB-2
  GSI Sensitivity: Medium (medium, IC50 3-4 uM)
Human T-ALL cell lines; cell lines JURKAT, LOUCY, MOLT -4, MOLT-16, SKW-3
  GSI Sensitivity: None (none, IC50>10 uM)
Human T-ALL cell lines; cell lines TALL-1, KOPTK-1, DND41, HBP-ALL, KARPAS-45, RPMI 8402
  GSI Sensitivity: High (high, IC50<1 uM)
CDKN2D, CDKN1B [2]
  increases in CDKN2D and CDKN1B by immunoblot (FIG. 3C): increases in the CDKi CDKN2D and CDKN1B
TALL-1
  IC50: 0.11 µM
LOUCY
  IC50: > 10 µM
HBP-ALL
  IC50: 0.38 µM
CEM
  IC50: 3.2 µM
RPMI 8402
  IC50: 0.86 µM
SUPT-11
  IC50: 7.1 µM
KARPAS-45
  IC50: 0.81 µM
JURKAT
  IC50: > 10 µM
PF-382
  IC50: 3.2 µM
BE-13
  IC50: 6.8 µM
KOPTK-1
  IC50: 0.15 µM
HSB-2
  IC50: 3.7 µM
SKW-3
  IC50: > 10 µM
DND41
  IC50: 0.25 µM
MOLT -4
  IC50: > 10 µM
MOLT-16
  IC50: > 10 µM
TALL1
  cell cycle arrest (FIG. 3A): induced cell cycle arrest
